The values that follow come from PMC9227994, “Evaluation of the Intestinal Permeability of Rosmarinic Acid from Thunbergia laurifolia Leaf Water Extract in a Caco-2 Cell Model” (Molecules, 2022).

Entries after “also recorded” stand apart in the source; their conditions may differ. Like-named read-outs stand apart in the source and are kept apart here.

Data set [1] in a line: Transepithelial transport (permeability) across Caco-2 cell monolayers, HPLC-PDA, with or without β-glucuronidase/sulfatase deconjugation. The note with it: human, after β-glucuronidase/sulfatase. The format is in vitro ADME, human. On the procedure: (§1) Caco-2 cells (ATCC no. HTB-37) were obtained from the American Type Culture Collection (Rockville, MD, USA) and cultured in DMEM containing […] sodium pyruvate, 20% fetal bovine serum, and 10,000 U/mL penicillin and 10,000 ug/mL streptomycin. Cell culture was maintained at 37 °C in a humidified atmosphere of 5% CO2. On achieving 80–90% confluence, Caco-2 cells were harvested using 0.25% trypsin–EDTA solution and mixed with complete DMEM medium. All cells were used for transport experiments between passages 30 and 40. The integrity of the Caco-2 cell monolayer in the transwell plates was evaluated by measuring transepithelial electrical resistance (TEER) across the monolayers using Millicell-ERS VoltOhm Meter (Millipore, Temecula, CA, USA). […] A (cm^2) is the area of the insert, 1.12 cm^2. […] The culture medium in inserts and plates was changed every 2–3 days for both A and B sides. All cells were used for transport experiments on days 19–21 postseeding. Before starting the transport experiment, the inserts were washed twice and equilibrated with transport buffer (HBSS containing […] HEPES, pH 7.4) for 30 min. Sample solutions of TL extract and RA were prepared and diluted in HBSS to the desired final concentrations. For the transport study of TL extract and RA across Caco-2 cell, sample solutions were added on donor chamber, 400 µL on A side or 1200 µL on B side. The equal volumes of transport buffer were replaced in the receiving chambers. The RA transport in samples was assessed either in A-B or B-A direction across Caco-2 cell monolayers. The plates were incubated at 37 °C for 120 min with gentle shaking at 100 rpm. The solutions of 200 µL on A side and 600 µL on B side were collected at the selected times of 30, 60, 90, and 120 min and immediately replaced with an equal volume of transport buffer to maintain the total volume in receiving chamber. Samples were stored at −80°C until analysis. The amount of transported RA in samples and reference compound was calculated using HPLC system according to the standard curve. β-glucuronidase/sulfatase (Type H-2 from Helix pomatia, 85 units/L of glucuronidase, and 7.5 units/L of sulfatase, Sigma-Aldrich Co., St. Louis, MO, USA) was added to collected samples, which were obtained from B-A solutions at 30, 60, 90, and 120 min, in a ratio of 1:20 and incubated at 37 °C for 4 h to release the parent compounds. These samples from both sides were then injected directly and analyzed for RA by HPLC. The relationship of Q (cumulative permeated amount; μg) versus time, was calculated with the following Equation (3):(3) Q=CnV+∑i=1n−1CiS where Cn is concentration of RA determined at nth sampling interval; V is volume of individual side, ∑i=1n−1Ci is sum of concentration of RA determined at sampling intervals 1 through n − 1, and S is volume of sampling aliquot The Papp (unit: cm/s) was determined and calculated from the amount of compound permeated per time by the following Equation (4):(4) Papp=(dQ/dt/C0×A) where dQ/dt is the steady-state flux of test compound across the cell monolayer in the receiver chamber (µg/min); C0 is the initial concentration in the donor (A or B side) chamber (µg/mL), and A is the surface area of the cell monolayer (cm^2). The membrane area (cm^2) of the insert is 1.12 cm^2. The ER was determined by calculating the ratio of Papp (B-A) versus Papp (A-B) as the following Equation (5):(5) ER=Papp (B-A)/Papp (A-B) where Papp (B-A) is the apparent permeability coefficient value in B-A direction, and Papp (A-B) is the permeability coefficient value in A-B direction. Basolateral recovery (%) was calculated as the amount of test compound transported through the Caco-2 cell monolayer to the B side and remaining on the A side at the end of the experiment divided by the initial amount on the A side.

The test system of a further data set is Caco-2 cell monolayers. The data set is described as above. It is filed as in vitro ADME, human. The note with it: for Papp (A-B) relative to B-A direction: after deconjugation; for ER (after Deconjugation): Papp (B-A)/Papp (A-B). On the procedure:
as §1

A short description of data set [2]: Stability of RA in HBSS (pH 7.4) at 37 °C for 2 h. It is filed as physicochemical. The note with it: HBSS pH 7.4, 37 °C, TL extract 250 µg/mL equivalent to pure RA 3.267 µg/mL. As for the experimental part: The stability of RA in the TL extract of 250 µg/mL, which was equivalent to pure RA of 3.267 µg/mL in HBSS solution was determined. The TL extracts and RA were dissolved in HBSS solution (pH 7.4) and incubated at 37 °C for 2 h according to the same conditions as in the transport experiment. The contents of the RA as in TL extract and pure compound were measured for stability tests using HPLC. Their RA remains before and after incubation were calculated and expressed as a percentage of RA.

Data set [3] in a line: Cytotoxicity test, MTT assay. The note with it: human, Caco-2 cells, 1000 µg/mL, read-out: cell viability. The format is cell-based, human. On the procedure:
(§2) Cell viability of TL extracts and RA on Caco-2 cells was determined using MTT following modified assay. Caco-2 cells were seeded in 96-well plates at a density of 2 × 10^4 cells/well and cultured at 37 °C and 5% CO2 for 24 h. TL extracts and RA were dissolved in 50% DMSO and diluted with complete DMEM medium containing 0.1% DMSO in the culture medium. The tested compounds were diluted with medium at a concentration range of 1–1000 µg/mL for 24 h exposure experiment. After removal of the medium, the cells were washed with PBS and incubated with 50 µL of 0.5% MTT solution for 2 h at 37 °C and 5% CO2. A total of 50 μL of DMSO was put into each well to dissolve the formazan crystals. The absorbance was detected using a microplate reader at 590 nm. The percentage of cell viability was calculated according to the following Equation (1):(1) % Cell viability=A (sample)−A (blank)/A (control)−A (blank)×100 where A (sample) is absorbance value of sample; A (blank) is absorbance value of blank, and A (negative control) is absorbance value of control (cells). The experiment was performed in three replicates, and the concentration with a viability of more than 90% was chosen for evaluation in monolayer transport experiments as nontoxic to cells.

Data set [4] relates to Caco-2 cells. Nature of the data set: Cytotoxicity test, MTT assay. It is filed as cell-based, human. The note with it: concentrations below 500 µg/mL, 24 h. On the procedure: as §2
(Formazan colour is commonly taken as a measure of viable cells.)

On the set-up of data set [5]: method as in doi:10.1039/C6RA28237G. The note with it: rats, cited from earlier work.
For data set [6], the system named is Caco-2 cells. Further details: method as in PMID 15784988. The note with it: cited from earlier work.
The conditions of data set [7]: cited from earlier work.
The mark [8] stands for this setting: pure RA 3.267 µg/mL, after β-glucuronidase/sulfatase, listed as RA in pure RA.

What is called Papp A→B is how fast a substance crosses the layer from the apical side. A word on the Papp B→A: it is how fast a substance crosses the layer from the basolateral side. The viability is a per cent measure of how many cells are alive, often set against a control. Consider `O=C(/C=C/c1ccc(O)c(O)c1)O[C@H](Cc1ccc(O)c(O)c1)C(=O)O` [RA, Rosmarinic acid], for which the Papp A→B at 120 min, 3.267 µg/mL in data set [1] (Caco-2, pH 7.4, pure RA 3.267 µg/mL, read-out: Papp A-B Direction (after Deconjugation)) is 41.2 ± 2.29 ×10⁻⁶ cm/s. In data set [1] (Caco-2, pH 7.4, pure RA 3.267 µg/mL, read-out: Papp B-A Direction (after Deconjugation)), the Papp B→A at 120 min, 3.267 µg/mL is 20.4 ± 5.16 ×10⁻⁶ cm/s. Also, in data set [1] (Caco-2, pH 7.4, pure RA 6.808 µg/mL, read-out: Papp A-B Direction (after Deconjugation)), the Papp A→B at 120 min, 6.808 µg/mL worked out at 22.9 ± 0.97 ×10⁻⁶ cm/s. Moreover, in data set [1] (Caco-2, pH 7.4, pure RA 6.808 µg/mL, read-out: Papp B-A Direction (after Deconjugation)), the Papp B→A at 120 min, 6.808 µg/mL was found to be 6.2 ± 0.2 ×10⁻⁶ cm/s. In addition, in the data set on Caco-2 cell monolayers (all concentrations, below 2 taken as no active efflux), the “efflux ratio (ER), overall” value was “less than 2”. In addition, the “Papp (A-B) relative to B-A direction” value in the data set on Caco-2 cell monolayers (pure RA 3.267 µg/mL) came to 2.02 fold; with Caco-2 cell monolayers (pure RA 6.808 µg/mL), 3.67 fold. For the same compound, the “ER (after Deconjugation)” value is listed as 0.5 in the data set on Caco-2 cell monolayers (pure RA 3.267 µg/mL) and 0.3 in the data set with Caco-2 cell monolayers (pure RA 6.808 µg/mL). Moreover, the “Papp A-B Direction (after Deconjugation)” value with Caco-2 cell monolayers (setting [8]) is listed as 41.2 ± 2.3 × 10^−6 cm/s; in the data set on Caco-2 cell monolayers (pure RA 6.808 µg/mL, after β-glucuronidase/sulfatase, listed as RA in pure RA), 22.9 ± 1.0 × 10^−6 cm/s. For the same compound, the “Papp B-A Direction (after Deconjugation)” value in the data set with Caco-2 cell monolayers (setting [8]) is 20.4 ± 5.2 × 10^−6 cm/s. Moreover, the “Papp values before deconjugation, A-B and B-A directions” value with Caco-2 cell monolayers (pure RA, both concentrations, both directions) was “could not be detected; also recorded: not detectable”. For the same compound, in data set [2], the “RA stability in HBSS” value was 91%. Further, in data set [3], the viability at 24 h, 1000 µg/mL is 85%. In addition, the “Cytotoxicity to Caco-2 cells” value in the data set on Caco-2 cells [4] was “nontoxic”. In addition, the “oral absolute BA” value is given as 1.69% in data set [5] (single oral dose 12.5 mg/kg), 1.28% in data set [5] (single oral dose 25 mg/kg) and 0.91% in data set [5] (single oral dose 50 mg/kg). The “RA absorbed in Caco-2 cells” value with Caco-2 cells [6] is 0.03–0.06%. Further, the “logarithm of octanol–water partition coefficient (logP)” value in data set [7] is 1.626. Further, the “partition coefficient (log Kow)” value in data set [7] was 1.82.
